The values that follow come from patent US20120138147A1, “PHOTOELECTRIC CONVERSION ELEMENT, MANUFACTURING METHOD OF THE SAME AND ELECTRONIC EQUIPMENT” (Sony Corporation, priority 2010, published 2012).

As usually defined, the pKa is the pH at which an ionisable group is half protonated. Low readings indicate a stronger acid or weaker base, high ones a weaker acid or stronger base.

The nature of this series: physchem. The source says:
Here, Ka is the dissociation equilibrium constant of a conjugate acid in water. This additive is typically a pyridine-based additive or an additive having a heterocycle. […] However, the pyridine-based additives are not limited thereto. On the other hand, among specific examples of additives having a heterocycle are N-methylimidazole(MIm), 2,4-lutidine(24-Lu), 2,5-lutidine(25-Lu), 2,6-lutidine(26-Lu), 3,4-lutidine(34-Lu) and 3,5-lutidine(35-Lu). However, the additives having a heterocycle are not limited thereto.
In the case of `COc1ccccn1` [2-MeO—Py], the “pKa (water)” value worked out at 3.28.

Regarding `Brc1cccnc1` [3-Br—Py], the “pKa (water)” value turned out to be 2.84.

In the case of `COC(=O)c1cccnc1` [3-COOMe—Py], the “pKa (water)” value is listed as 3.13.

Take `COc1cccnc1` [3-MeO—Py]: the “pKa (water)” value is given as 4.88.

For `N#Cc1ccncc1` [4-CN—Py], the “pKa (water)” value is on record as 1.9.

The compound `CCc1ccncc1` [4-Et—Py, 4-ethylpyridine] had a pKa of 6.04.

Regarding `CNc1ccncc1` [4-MeNH—Py], the “pKa (water)” value is reported as 12.5.

For the compound `COc1ccncc1` [4-MeO—py, 4-methoxypyridine], the pKa turned out to be 6.62 and the “pKa (water)” value is reported as 6.62.

For the compound `Nc1ccncc1` [4-NH2—Py], the “pKa (water)” value is on record as 9.17.

Take `Cc1ccncc1` [4-pic]: the “pKa (water)” value worked out at 6.03.

Compound `Cc1ccnc(C)c1` [24-Lu, 2,4-lutidine] had a pKa of 6.72.

Compound `Cc1ccc(C)nc1` [25-Lu, 2,5-lutidine] had a pKa of 6.47.

As to `Cc1cccc(C)n1` [26-Lu, 2,6-lutidine], the pKa worked out at 6.77 and the “pKa (water)” value is listed as 6.77.

The compound `Cc1ccncc1C` [34-Lu, 3,4-lutidine] yielded a pKa of 6.52.

The compound `Cc1cncc(C)c1` [35-Lu, 3,5-lutidine] showed a pKa of 6.14.

In the case of `c1ccc2c(c1)ccc1ncccc12` [56-benzoquinoline], the “pKa (water)” value came out at 5.15.

In turn, `Cn1ccnc1` [Mlm, N-methylimidazole] registered a pKa of 7.3.

Take `Cn1cnc2ccccc21` [NMB]: the “pKa (water)” value was 5.6.

As to `CC(C)(C)c1ccncc1` [TBP, 4-tert-butylpyridine], the pKa was found to be 5.99.

As to `c1ccc2nc3ccccc3cc2c1` [acridine], the pKa is 5.6.

On to `c1ccc(-c2ccccn2)nc1` [bpy], for which the “pKa (water)” value is given as 4.42.

Consider `c1ccc2cnccc2c1` [isoquinoline], for which the pKa turned out to be 5.38.

Regarding `c1cnccn1` [pyrazine], the pKa stood at 0.6.

The compound `c1ccnnc1` [pyridazine] came in with a pKa of 2.1.

For `c1ccc2ncccc2c1` [quinoline], the pKa is 4.97.

Take Me-pyrazole: the “pKa (water)” value is listed as 2.1.
